Measurements published in ChEMBL document CHEMBL1201862, “PubChem BioAssay data set” (2004).
Values joined by “and” are separate entries in the source; they are usually repeats but may differ in a detail not shown here. Identical values can stand only once. Active and inactive are the calls of the source.

Tests used:
INS1 = experiment: INS-1E survival protection against cytokine death – cell-based, luminescence, retest, dose response (AID 449756); type: functional; conditions: Rattus norvegicus;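 further: cell death triggered by IL-1 beta plus TNF-alpha plus IFN-gamma mixture; protective hits raise ATP signal compared with cytokine alone wells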
Cytochrome P450 2C9 = Cytochrome P450 2C9 (Homo sapiens, UniProt P11712)
Cytochrome P450 2C9, sequence (P11712 whole entry): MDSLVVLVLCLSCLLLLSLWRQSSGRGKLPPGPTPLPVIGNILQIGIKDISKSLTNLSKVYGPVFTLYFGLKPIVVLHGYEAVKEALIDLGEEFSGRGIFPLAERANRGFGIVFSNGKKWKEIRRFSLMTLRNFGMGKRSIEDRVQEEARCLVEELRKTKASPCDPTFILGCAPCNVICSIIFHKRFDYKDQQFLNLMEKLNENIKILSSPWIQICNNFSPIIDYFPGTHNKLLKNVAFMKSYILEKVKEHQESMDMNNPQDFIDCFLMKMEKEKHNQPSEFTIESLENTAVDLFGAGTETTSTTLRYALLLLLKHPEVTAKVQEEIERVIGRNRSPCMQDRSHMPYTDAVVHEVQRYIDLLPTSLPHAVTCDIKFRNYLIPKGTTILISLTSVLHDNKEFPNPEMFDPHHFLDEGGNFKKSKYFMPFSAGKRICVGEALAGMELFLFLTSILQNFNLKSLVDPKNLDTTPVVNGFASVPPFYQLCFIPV

Cytochrome P450 2C19 = Cytochrome P450 2C19 (Homo sapiens, UniProt P33261); experiment: Cytochrome panel assay with activity outcomes. Panel member name: p450-cyp2c19 Compounds with AC50 equal or less than 10 uM are considered active; type: functional
Cytochrome P450 2C19, sequence (P33261 whole entry): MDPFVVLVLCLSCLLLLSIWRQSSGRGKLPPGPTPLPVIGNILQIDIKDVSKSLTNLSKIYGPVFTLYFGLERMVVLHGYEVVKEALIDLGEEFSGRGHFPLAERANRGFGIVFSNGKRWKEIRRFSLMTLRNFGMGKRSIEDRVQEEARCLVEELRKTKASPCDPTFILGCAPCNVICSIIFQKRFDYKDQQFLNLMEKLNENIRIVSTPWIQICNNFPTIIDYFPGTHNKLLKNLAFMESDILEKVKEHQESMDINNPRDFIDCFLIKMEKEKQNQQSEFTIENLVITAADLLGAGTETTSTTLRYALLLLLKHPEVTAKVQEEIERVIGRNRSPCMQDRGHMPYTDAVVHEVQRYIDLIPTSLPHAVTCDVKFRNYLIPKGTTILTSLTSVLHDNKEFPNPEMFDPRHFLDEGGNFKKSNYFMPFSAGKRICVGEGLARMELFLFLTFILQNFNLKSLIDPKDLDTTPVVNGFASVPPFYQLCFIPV

Cytochrome P450 3A4 = Cytochrome P450 3A4 (Homo sapiens, UniProt P08684);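 further: CYP3A4 tested as one member of a cytochrome P450 panel screen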
Cytochrome P450 3A4, sequence (P08684 whole entry): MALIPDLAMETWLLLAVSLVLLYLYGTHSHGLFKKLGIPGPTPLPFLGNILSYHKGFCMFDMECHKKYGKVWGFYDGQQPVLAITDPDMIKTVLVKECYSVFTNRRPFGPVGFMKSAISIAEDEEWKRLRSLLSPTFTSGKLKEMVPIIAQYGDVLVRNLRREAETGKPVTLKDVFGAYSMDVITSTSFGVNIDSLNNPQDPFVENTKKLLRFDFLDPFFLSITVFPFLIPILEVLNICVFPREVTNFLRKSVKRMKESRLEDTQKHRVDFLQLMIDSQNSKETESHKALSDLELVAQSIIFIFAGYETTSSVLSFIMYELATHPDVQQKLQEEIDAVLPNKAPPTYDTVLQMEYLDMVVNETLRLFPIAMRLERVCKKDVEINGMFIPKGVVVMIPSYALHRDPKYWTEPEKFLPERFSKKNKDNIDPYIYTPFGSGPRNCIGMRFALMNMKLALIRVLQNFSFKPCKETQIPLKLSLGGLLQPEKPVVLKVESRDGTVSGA

Cytochrome P450 2D6 = Cytochrome P450 2D6 (Homo sapiens, UniProt P10635);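 further: CYP2D6 member of a cytochrome P450 panel assay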
Cytochrome P450 2D6, sequence (P10635 whole entry): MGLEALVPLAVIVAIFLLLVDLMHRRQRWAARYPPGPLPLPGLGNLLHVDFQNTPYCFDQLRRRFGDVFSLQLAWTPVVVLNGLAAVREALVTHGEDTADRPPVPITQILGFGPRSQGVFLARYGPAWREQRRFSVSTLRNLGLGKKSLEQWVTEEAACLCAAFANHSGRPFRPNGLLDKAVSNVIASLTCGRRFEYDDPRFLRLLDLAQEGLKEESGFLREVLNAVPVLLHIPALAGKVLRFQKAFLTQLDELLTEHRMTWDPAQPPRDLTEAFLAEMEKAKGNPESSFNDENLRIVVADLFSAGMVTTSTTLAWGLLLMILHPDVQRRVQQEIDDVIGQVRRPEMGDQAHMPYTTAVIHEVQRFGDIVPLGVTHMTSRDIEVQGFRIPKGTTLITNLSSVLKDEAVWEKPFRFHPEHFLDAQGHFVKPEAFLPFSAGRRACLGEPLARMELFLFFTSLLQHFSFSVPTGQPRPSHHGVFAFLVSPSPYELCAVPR

[1] = Trypanosoma cruzi growth suppression in host cells – NIH3T3 host cells, beta-gal luminescence, confirmation (AID 2044); type: functional, cell-based;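 further: intracellular parasites grown in NIH/3T3 mouse fibroblasts as host cells; luminescent beta-galactosidase reporter signal from transgenic T. cruzi replicating inside host cells; inhibitors lower the luminescence signal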
[2] = NIH3T3 cell viability loss – ATP luminescence, mouse fibroblasts, counter-screen, dose response (AID 2010); type: functional, cell-based;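 further: cells exposed to compound for about 90 hours before reading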

Structure (SMILES): Cc1ccc(-c2csc(NC(=O)c3c(C)noc3C)n2)s1
- AC50 (INS1): 3.99 µM (active)

Structure (SMILES): Cc1ccc(-n2nnnc2Sc2nc([N+](=O)[O-])nn2C)cc1C
- AC50 (Cytochrome P450 2C9): 1.58 µM (inconclusive)

Structure (SMILES): O=C(c1csnn1)N1CCC2(CC1)CCN(c1ccncc1)CC2
- AC50 (Cytochrome P450 2C19; read-out: AC50): 39.8 µM (inconclusive)
- AC50 (Cytochrome P450 3A4): 15.8 µM (inconclusive)
- AC50 (Cytochrome P450 2C9): 15.8 µM (inconclusive)

Structure (SMILES): CC(=O)OC[C@@H]1O[C@H](C/C=N\O[C@@H](C)c2cn([C@H](CO)Cc3ccccc3)nn2)C=C[C@@H]1OC(C)=O
- AC50 (Cytochrome P450 3A4): 5.01 µM (inconclusive) and 3.98 µM (inconclusive)

Structure (SMILES): COC(=O)[C@@]1(Cc2ccccc2)[C@H]2c3cc(C(=O)N(C)C)n(Cc4cc(C)n(C)n4)c3C[C@H]2CN1C(=O)c1ccccc1
- AC50 (Cytochrome P450 2D6): 39.8 µM (inconclusive)

Structure (SMILES): CS(=O)(=O)N1CCC2(CCCN(Cc3ccc(C#N)cc3)C2)CC1
- AC50 (Cytochrome P450 2D6): 20 µM (inconclusive)

Structure (SMILES): CCN1C(=O)C(CC(=O)Nc2ccc(OC)cc2)N(Cc2cccnc2)C1=S (stereo not given)
- AC50 (Cytochrome P450 2C9): 10 µM (inconclusive)

Structure (SMILES): Cc1cnc(CNc2ncncc2-c2ccccc2CN(C)C)cn1
- AC50 (Cytochrome P450 2D6): 39.8 µM (inconclusive)

Structure (SMILES): COc1cccc(NC(=S)N2CCn3cccc3C2c2cccnc2)c1 (stereo not given)
- EC50 [1]: 1.12 µM (active)
- EC50 [2]: > 60 µM (not active)

Structure (SMILES): Cn1c(=O)c(-c2ccc(F)c(F)c2)nc2cncnc21
- AC50 (Cytochrome P450 3A4): 20 µM (inconclusive)

Structure (SMILES): Fc1ccc(CN(C2=NCCN2)c2c(Cl)cccc2Cl)cc1
- AC50 (Cytochrome P450 2C9): 39.8 µM (inconclusive)

Structure (SMILES): O=C(Cn1ccc2ccccc2c1=O)N1CCN(c2cccc(Cl)c2)CC1
- AC50 (Cytochrome P450 2C19; read-out: AC50): 7.08 µM (inconclusive)
- AC50 (Cytochrome P450 3A4): 3.16 µM (inconclusive)

Structure (SMILES): O=C(CCCn1cnc([N+](=O)[O-])n1)Nc1ccc(Cl)cc1Cl
- EC50 [1]: 0.132 µM (active)
- EC50 [2]: > 60 µM (inconclusive)

Structure (SMILES): C#CCn1c(S(=O)(=O)Cc2ccc(OC)cc2)nc(-c2ccccc2)c1-c1ccccc1
- AC50 (Cytochrome P450 2D6): 14.1 µM (inconclusive)

Structure (SMILES): COCC1CCCCN1Cc1c[nH]nc1-c1ccc2cc(OC)ccc2c1 (stereo not given)
- EC50 [1]: 0.679 µM (active)
- EC50 [2]: > 60 µM (not active)

Structure (SMILES): O=S(=O)(NCc1cc(-c2ccccc2)no1)c1ccc(Cl)cc1
- AC50 (Cytochrome P450 2D6): 20 µM (inconclusive)
- AC50 (Cytochrome P450 3A4): 25.1 µM (inconclusive)

Structure (SMILES): c1ccc(-c2nc3ccccc3o2)nc1
- AC50 (Cytochrome P450 2C9): 39.8 µM (inconclusive)

Structure (SMILES): C[n+]1ccc(/C=C/c2ccc(Br)cc2)cc1
- AC50 (Cytochrome P450 2C19; read-out: AC50): 3.98 µM (inconclusive)

Structure (SMILES): CCOc1ccc(N(CC(=O)NCCC2=CCCCC2)S(=O)(=O)c2ccccc2)cc1
- EC50 [1]: 2.58 µM (active)
- EC50 [2]: 10.6 µM (active)

Structure (SMILES): Cc1ccc(C)c(N2CCN(CC(=O)Nc3ccc([N+](=O)[O-])cc3C(=O)Nc3ccccc3F)CC2)c1
- EC50 [1]: 1.19 µM (active)
- EC50 [2]: > 60 µM (not active)

Structure (SMILES): O=C(O)C/C(=C\c1ccco1)C(=O)O
- AC50 (Cytochrome P450 2C19): inconclusive

Structure (SMILES): O=C(CSc1ccccc1)Nc1ccc(N2CCN(c3ccccc3)CC2)c(F)c1
- AC50 (Cytochrome P450 2C19; read-out: AC50): 39.8 µM (inconclusive)
- AC50 (Cytochrome P450 2C9): 0.447 µM (inconclusive)

Structure (SMILES): O=C(c1cnccn1)N1CCC2(CCCN(c3ccccn3)C2)CC1
- AC50 (Cytochrome P450 2D6): 20 µM (inconclusive)
- AC50 (Cytochrome P450 3A4): 7.94 µM (inconclusive)

Structure (SMILES): CCOC(=O)c1c(NC(=O)C2=C(C)N=C(S)NC2c2ccccc2C(F)(F)F)sc(C)c1C (stereo not given)
- EC50 [1]: 2.4 µM (active)
- EC50 [2]: > 60 µM (not active)

Structure (SMILES): Cc1ccc(S(=O)ON2CCC(C(=O)O)(c3ccccc3)CC2)cc1 (stereo not given)
- AC50 (Cytochrome P450 2C19): inconclusive

Structure (SMILES): COc1ccc(Cn2c(-c3ccc(Br)cc3)c[n+]3ccccc23)cc1
- EC50 [1]: 0.822 µM (active)
- EC50 [2]: > 30 µM (not active)

Structure (SMILES): C=C(CC1(C(C)NP(=O)(c2ccccc2)c2ccccc2)CC1)c1ccccc1 (stereo not given)
- AC50 (Cytochrome P450 2D6): 39.8 µM (inconclusive)

Structure (SMILES): COc1ncc2nc(-c3ccc(Cl)cc3)c(=O)n(Cc3cccs3)c2n1
- AC50 (Cytochrome P450 2D6): 2.51 µM (inconclusive)
- AC50 (Cytochrome P450 2C9): 15.8 µM (inconclusive)

Structure (SMILES): C[N+]1(C)CCC[C@@H](OC(=O)C(O)(c2ccccc2)c2ccccc2)C1
- AC50 (Cytochrome P450 2C19): inconclusive
- AC50 (Cytochrome P450 2D6): 10 µM (inconclusive)

Structure (SMILES): C=CC1=C[C@@H](O)C2OC2C12OCCCO2 (stereo not given in full)
- AC50 (Cytochrome P450 2C19): inconclusive

Structure (SMILES): Cc1noc(C)c1-c1nccc(NCc2ccccc2)n1
- AC50 (Cytochrome P450 2D6): 39.8 µM (inconclusive)

Structure (SMILES): Nc1ncnc2c1cnn2-c1ccccc1
- AC50 (Cytochrome P450 2C19; read-out: AC50): 4.47 µM (inconclusive)

Structure (SMILES): c1ccc(CNc2cc(-c3ccoc3)ncn2)cc1
- AC50 (Cytochrome P450 3A4): 12.6 µM (inconclusive)

Structure (SMILES): FC(F)(F)c1cccc(CN2CCC(c3cc(-c4cccs4)[nH]n3)CC2)c1
- EC50 [1]: 2.31 µM (active)
- EC50 [2]: 14.6 µM (active)

Structure (SMILES): c1cc(CCN2CCCCC2)ccn1
- AC50 (Cytochrome P450 3A4): 6.31 µM (inconclusive)

Structure (SMILES): COc1ccc2c(c[n+](C)c3c4cc5c(cc4ccc23)OCO5)c1OC [CHELERYTHRINE]
- AC50 (Cytochrome P450 2D6): 25.1 µM (inconclusive)
- AC50 (Cytochrome P450 3A4): 31.6 µM (inconclusive)
- AC50 (Cytochrome P450 2C9): 39.8 µM (inconclusive)

Structure (SMILES): O=C(c1ccncc1)N1CCC[C@@]2(CCN(Cc3nccs3)C2)C1
- AC50 (Cytochrome P450 2D6): 20 µM (inconclusive)
